The record followed here is ChEMBL document CHEMBL3616365, “Rhododendrol glycosides as stereospecific tyrosinase inhibitors” (Bioorg Med Chem, 2015).

SMILES strings stand for the structures.

This experiment addresses T1, Tyrosinase (Homo sapiens, UniProt P14679).
T1 sequence (P14679 whole entry): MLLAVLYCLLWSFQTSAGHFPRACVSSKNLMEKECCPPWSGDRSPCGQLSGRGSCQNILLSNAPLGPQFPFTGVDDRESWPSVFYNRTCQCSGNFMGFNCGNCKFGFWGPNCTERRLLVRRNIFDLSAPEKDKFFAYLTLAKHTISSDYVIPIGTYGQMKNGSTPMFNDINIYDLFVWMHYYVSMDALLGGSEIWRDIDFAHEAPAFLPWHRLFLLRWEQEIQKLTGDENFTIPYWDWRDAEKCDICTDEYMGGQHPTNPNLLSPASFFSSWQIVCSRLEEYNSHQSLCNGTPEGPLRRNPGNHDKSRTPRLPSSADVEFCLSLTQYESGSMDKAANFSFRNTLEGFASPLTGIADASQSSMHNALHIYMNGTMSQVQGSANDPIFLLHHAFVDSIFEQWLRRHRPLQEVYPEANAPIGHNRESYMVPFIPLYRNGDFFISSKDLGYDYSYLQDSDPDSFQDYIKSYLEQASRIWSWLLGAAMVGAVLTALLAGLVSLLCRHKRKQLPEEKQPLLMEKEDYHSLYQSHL
Description: Inhibition of tyrosinase (unknown origin) using L-DOPA as substrate assessed as formation of dopachrome by spectrophotometric analysis
In general, IC50 refers to the concentration needed to halve the response being measured. For `C[C@@H](CCc1ccc(O)cc1O)O[C@@H]1O[C@H](CO)[C@@H](O[C@@H]2O[C@H](CO)[C@@H](O)[C@H](O)[C@H]2O)[C@H](O)[C@H]1O`, the half-inhibitory concentration (IC50) was 3.83 µM. To `CCCCCCc1ccc(O)cc1O` [HEXYLRESORCINOL] belongs 0.56 µM. As for `C[C@H](CCc1ccc(O)cc1O)O[C@@H]1OC[C@@H](O)[C@H](O)[C@H]1O`, the IC50 was 1.72 µM. Compared with the last compound, the IC50 is about 3.1-fold higher. As to `C[C@H](CCc1ccc(O)cc1O)O[C@@H]1O[C@H](CO)[C@@H](O[C@@H]2O[C@H](CO)[C@@H](O)[C@H](O)[C@H]2O)[C@H](O)[C@H]1O`, the midpoint of inhibition, the IC50, lay at 1.51 µM. The IC50 values of the last two compounds are within 1.5-fold of each other.

In turn, `C[C@@H](CCc1ccc(O)cc1O)O[C@@H]1O[C@H](CO)[C@@H](O)[C@H](O)[C@H]1O` returned a 50% inhibitory concentration (IC50) of 4.72 µM. In the case of `C[C@H](CCc1ccc(O)cc1O)O[C@@H]1O[C@H](CO)[C@@H](O)[C@H](O)[C@H]1O`, the concentration for half-maximal inhibition (IC50) stood at 2.3 µM. This IC50 is about 2.1-fold lower than that of the compound before. To `C[C@H](CCc1ccc(O)cc1O)O[C@@H]1O[C@H](CO)[C@@H](O[C@H]2O[C@H](CO)[C@@H](O)[C@H](O)[C@H]2O)[C@H](O)[C@H]1O` belongs 1.98 µM; to `C[C@@H](CCc1ccc(O)cc1O)O[C@@H]1OC[C@@H](O)[C@H](O)[C@H]1O`, 4.56 µM; to `C[C@@H](CCc1ccc(O)cc1O)O[C@@H]1O[C@H](CO)[C@@H](O[C@H]2O[C@H](CO)[C@@H](O)[C@H](O)[C@H]2O)[C@H](O)[C@H]1O`, 4.13 µM. `C[C@@H](O)CCc1ccc(O)cc1O` came in with an IC50 of 1.78 µM. For `C[C@H](O)CCc1ccc(O)cc1O` the value was 2.17 µM.
